Measurements taken from patent US9458137B2, “Substituted indol-5-ol derivatives and their therapeutical applications” (NantBioScience, Inc., priority 2012, dated 2016).

Experiments:
Experiment in all cases: Kinase panel activity
Format in all cases: biochemical
Conditions in all cases: 0.1 μM, ATP Km
MKK6(h) = target: T1, MKK6(h) (Homo sapiens, UniProt P52564)
T1 construct: purchased Millipore (KinaseProfiler service)
Protocol: (§1) The effect of NTW-3475 on kinase activity was tested for a wide range of kinases and is shown in Table 2: Summary Sheet, Activity % ATP Concentration: Km

MELK(h) = target: T2, MELK(h) (Homo sapiens, UniProt Q14680)
T2 construct: purchased Millipore (KinaseProfiler service)
Protocol: as §1

MST3(h) = MST3(h) (Homo sapiens, UniProt Q9Y6E0)
Protocol: as §1

CaMKIIδ(h) = CaMKIIδ(h) (Homo sapiens, UniProt Q13557)
Protocol: as §1

Haspin(h) = Haspin(h) (Homo sapiens, UniProt Q8TF76)
Protocol: as §1

CK1γ3(h) = CK1γ3(h) (Homo sapiens, UniProt Q9Y6M4)
Protocol: as §1

Ron(h) = target: T3, Ron(h) (Homo sapiens, UniProt Q04912)
T3 construct: purchased Millipore (KinaseProfiler service)
Protocol: as §1

PKCγ(h) = PKCγ(h) (Homo sapiens, UniProt P05129)
Protocol: as §1

MuSK(h) = MuSK(h) (Homo sapiens, UniProt O15146)
Protocol: as §1

ULK2(h) = ULK2(h) (Homo sapiens, UniProt Q8IYT8)
Protocol: as §1

ZIPK(h) = ZIPK(h) (Homo sapiens, UniProt O43293)
Protocol: as §1

PRAK(h) = PRAK(h) (Homo sapiens, UniProt Q8IW41)
Protocol: as §1

IGF-1R(h), activated = IGF-1R(h), activated (Homo sapiens, UniProt P08069)
Protocol: as §1

ALK4(h) = ALK4(h) (Homo sapiens, UniProt P36896)
Protocol: as §1

PKA(h) = PKA(h) (Homo sapiens, UniProt P17612)
Protocol: as §1

PAK4(h) = PAK4(h) (Homo sapiens, UniProt O96013)
Protocol: as §1

TAO3(h) = target: T4, TAO3(h) (Homo sapiens, UniProt Q9H2K8)
T4 construct: purchased Millipore (KinaseProfiler service)
Protocol: as §1

Pyk2(h) = target: T5, Pyk2(h) (Homo sapiens, UniProt Q14289)
T5 construct: purchased Millipore (KinaseProfiler service)
Protocol: as §1

PKBα(h) = PKBα(h) (Homo sapiens, UniProt P31749)
Protocol: as §1

Ret(V804M)(h) = target: T6, Ret(V804M)(h) (Homo sapiens, UniProt P07949, V804M)
T6 construct: purchased Millipore (KinaseProfiler service)
Protocol: as §1

BTK(h) = BTK(h) (Homo sapiens, UniProt Q06187)
Protocol: as §1

NEK2(h) = NEK2(h) (Homo sapiens, UniProt P51955)
Protocol: as §1

CaMKIIβ(h) = CaMKIIβ(h) (Homo sapiens, UniProt Q13554)
Protocol: as §1

PKBβ(h) = PKBβ(h) (Homo sapiens, UniProt P31751)
Protocol: as §1

Hck(h) = Hck(h) (Homo sapiens, UniProt P08631)
Protocol: as §1

KDR(h) = KDR(h) (Homo sapiens, UniProt P35968)
Protocol: as §1

LOK(h) = LOK(h) (Homo sapiens, UniProt O94804)
Protocol: as §1

PAK5(h) = PAK5(h) (Homo sapiens, UniProt Q9P286)
Protocol: as §1

EGFR(L861Q)(h) = target: T7, EGFR(L861Q)(h) (Homo sapiens, UniProt P00533, L861Q)
T7 construct: purchased Millipore (KinaseProfiler service)
Protocol: as §1

BRK(h) = BRK(h) (Homo sapiens, UniProt Q13882)
Protocol: as §1

FGFR1(h) = target: T8, FGFR1(h) (Homo sapiens, UniProt P11362)
T8 construct: purchased Millipore (KinaseProfiler service)
Protocol: as §1

CK1γ2(h) = CK1γ2(h) (Homo sapiens, UniProt P78368)
Protocol: as §1

SGK(h) = target: T9, SGK(h) (Homo sapiens, UniProt O00141)
T9 construct: purchased Millipore (KinaseProfiler service)
Protocol: as §1

EGFR(T790M,L858R)(h) = target: T10, EGFR(T790M,L858R)(h) (Homo sapiens, UniProt P00533, L858R/T790M)
T10 construct: purchased Millipore (KinaseProfiler service)
Protocol: as §1

PKCα(h) = PKCα(h) (Homo sapiens, UniProt P17252)
Protocol: as §1

FGFR4(h) = FGFR4(h) (Homo sapiens, UniProt P22455)
Protocol: as §1

PhKγ2(h) = PhKγ2(h) (Homo sapiens, UniProt P15735)
Protocol: as §1

Met(M1268T)(h) = target: T11, Met(M1268T)(h) (Homo sapiens, UniProt P08581, M1250T)
T11 construct: purchased Millipore (KinaseProfiler service)
Protocol: as §1

PDGFRα(D842V)(h) = PDGFRα(D842V)(h) (Homo sapiens, UniProt P16234, D842V)
Protocol: as §1

ROCK-I(h) = target: T12, ROCK-I(h) (Homo sapiens, UniProt Q13464)
T12 construct: purchased Millipore (KinaseProfiler service)
Protocol: as §1

Chain of ALK4(h) (P36896 24-505): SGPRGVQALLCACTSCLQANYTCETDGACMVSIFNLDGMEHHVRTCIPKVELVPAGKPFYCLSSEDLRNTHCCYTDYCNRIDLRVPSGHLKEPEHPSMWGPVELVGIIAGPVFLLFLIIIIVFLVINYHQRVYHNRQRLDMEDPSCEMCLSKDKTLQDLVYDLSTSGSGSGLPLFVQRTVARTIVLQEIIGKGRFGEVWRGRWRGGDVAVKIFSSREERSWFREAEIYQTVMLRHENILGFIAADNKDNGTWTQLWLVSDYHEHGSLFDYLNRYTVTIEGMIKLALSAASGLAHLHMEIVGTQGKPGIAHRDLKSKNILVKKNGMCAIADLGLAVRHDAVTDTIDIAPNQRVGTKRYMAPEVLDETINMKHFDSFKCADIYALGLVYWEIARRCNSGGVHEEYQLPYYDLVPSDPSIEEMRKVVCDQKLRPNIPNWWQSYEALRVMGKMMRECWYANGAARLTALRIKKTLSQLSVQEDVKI
Chain of BTK(h) (Q06187 whole entry): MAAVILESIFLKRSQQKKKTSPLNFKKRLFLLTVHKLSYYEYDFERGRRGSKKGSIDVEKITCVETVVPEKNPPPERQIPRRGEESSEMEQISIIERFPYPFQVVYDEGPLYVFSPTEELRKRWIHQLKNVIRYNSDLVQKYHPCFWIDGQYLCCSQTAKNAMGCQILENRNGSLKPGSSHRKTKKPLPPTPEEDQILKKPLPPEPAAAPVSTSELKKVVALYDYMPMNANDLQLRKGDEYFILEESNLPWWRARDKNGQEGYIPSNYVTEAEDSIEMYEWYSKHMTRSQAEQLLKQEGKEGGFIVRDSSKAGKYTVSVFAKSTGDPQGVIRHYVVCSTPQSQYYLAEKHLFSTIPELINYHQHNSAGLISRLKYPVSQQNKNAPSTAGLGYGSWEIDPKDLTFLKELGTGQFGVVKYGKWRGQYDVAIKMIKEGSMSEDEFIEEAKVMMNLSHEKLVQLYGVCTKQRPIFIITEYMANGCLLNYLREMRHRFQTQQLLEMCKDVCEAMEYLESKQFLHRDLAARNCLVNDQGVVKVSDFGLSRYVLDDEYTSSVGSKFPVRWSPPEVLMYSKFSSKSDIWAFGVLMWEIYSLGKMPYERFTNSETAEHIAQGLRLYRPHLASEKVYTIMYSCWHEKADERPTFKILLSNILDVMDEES
Chain of MST3(h) (Q9Y6E0 whole entry): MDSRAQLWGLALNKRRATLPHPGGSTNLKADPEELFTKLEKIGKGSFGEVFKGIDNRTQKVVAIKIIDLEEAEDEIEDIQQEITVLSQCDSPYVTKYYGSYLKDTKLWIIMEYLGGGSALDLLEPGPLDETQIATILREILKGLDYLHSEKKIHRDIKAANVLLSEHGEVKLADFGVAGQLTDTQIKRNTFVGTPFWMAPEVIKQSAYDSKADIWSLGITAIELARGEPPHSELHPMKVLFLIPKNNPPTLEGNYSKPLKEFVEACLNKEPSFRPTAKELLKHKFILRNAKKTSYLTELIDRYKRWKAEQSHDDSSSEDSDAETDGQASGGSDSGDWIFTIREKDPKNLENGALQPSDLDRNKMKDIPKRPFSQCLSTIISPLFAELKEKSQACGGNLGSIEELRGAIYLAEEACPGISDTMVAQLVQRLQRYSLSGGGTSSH
T9 sequence (O00141 whole entry): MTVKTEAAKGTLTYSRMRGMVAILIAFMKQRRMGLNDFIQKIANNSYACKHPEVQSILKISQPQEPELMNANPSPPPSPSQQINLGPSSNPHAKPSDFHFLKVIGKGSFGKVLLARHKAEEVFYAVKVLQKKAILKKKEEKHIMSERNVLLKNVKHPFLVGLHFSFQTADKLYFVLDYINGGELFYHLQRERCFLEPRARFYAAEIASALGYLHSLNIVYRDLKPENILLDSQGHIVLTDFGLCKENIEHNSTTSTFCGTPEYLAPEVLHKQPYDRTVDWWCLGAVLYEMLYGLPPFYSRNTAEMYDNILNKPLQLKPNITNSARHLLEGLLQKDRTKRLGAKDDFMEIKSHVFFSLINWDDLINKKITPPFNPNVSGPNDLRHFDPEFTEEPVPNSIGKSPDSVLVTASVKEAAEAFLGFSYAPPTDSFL
T2 sequence (Q14680 whole entry): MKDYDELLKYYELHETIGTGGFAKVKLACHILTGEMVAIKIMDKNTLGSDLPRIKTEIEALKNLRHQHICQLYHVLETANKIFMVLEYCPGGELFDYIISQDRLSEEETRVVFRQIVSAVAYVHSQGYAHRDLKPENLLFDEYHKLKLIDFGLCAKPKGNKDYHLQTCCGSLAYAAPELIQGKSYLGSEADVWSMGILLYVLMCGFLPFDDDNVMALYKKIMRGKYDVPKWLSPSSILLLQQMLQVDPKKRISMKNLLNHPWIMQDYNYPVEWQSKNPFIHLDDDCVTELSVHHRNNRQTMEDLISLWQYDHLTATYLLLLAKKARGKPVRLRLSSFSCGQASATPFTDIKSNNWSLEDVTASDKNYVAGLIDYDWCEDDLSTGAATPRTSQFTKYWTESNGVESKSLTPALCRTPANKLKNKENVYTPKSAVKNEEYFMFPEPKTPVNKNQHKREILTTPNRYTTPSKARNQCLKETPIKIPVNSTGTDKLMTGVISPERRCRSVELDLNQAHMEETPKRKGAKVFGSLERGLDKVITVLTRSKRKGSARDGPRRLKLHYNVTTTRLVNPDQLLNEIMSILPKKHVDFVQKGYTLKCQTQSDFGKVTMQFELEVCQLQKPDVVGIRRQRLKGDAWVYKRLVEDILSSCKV
Chain of CK1γ3(h) (Q9Y6M4 whole entry): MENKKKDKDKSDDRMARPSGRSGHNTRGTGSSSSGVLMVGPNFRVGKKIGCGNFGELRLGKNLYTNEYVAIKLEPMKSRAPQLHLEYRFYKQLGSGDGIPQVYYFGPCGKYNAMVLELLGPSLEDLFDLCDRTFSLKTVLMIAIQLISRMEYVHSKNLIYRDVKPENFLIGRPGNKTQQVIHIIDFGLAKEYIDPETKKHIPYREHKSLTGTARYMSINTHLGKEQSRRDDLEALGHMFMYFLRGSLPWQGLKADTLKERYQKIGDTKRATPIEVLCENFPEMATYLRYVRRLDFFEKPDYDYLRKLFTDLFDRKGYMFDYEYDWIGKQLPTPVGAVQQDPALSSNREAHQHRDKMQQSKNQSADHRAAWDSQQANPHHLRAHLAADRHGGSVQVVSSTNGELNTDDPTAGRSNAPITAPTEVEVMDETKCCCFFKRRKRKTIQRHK
T6 sequence (P07949 29-1114 V804M): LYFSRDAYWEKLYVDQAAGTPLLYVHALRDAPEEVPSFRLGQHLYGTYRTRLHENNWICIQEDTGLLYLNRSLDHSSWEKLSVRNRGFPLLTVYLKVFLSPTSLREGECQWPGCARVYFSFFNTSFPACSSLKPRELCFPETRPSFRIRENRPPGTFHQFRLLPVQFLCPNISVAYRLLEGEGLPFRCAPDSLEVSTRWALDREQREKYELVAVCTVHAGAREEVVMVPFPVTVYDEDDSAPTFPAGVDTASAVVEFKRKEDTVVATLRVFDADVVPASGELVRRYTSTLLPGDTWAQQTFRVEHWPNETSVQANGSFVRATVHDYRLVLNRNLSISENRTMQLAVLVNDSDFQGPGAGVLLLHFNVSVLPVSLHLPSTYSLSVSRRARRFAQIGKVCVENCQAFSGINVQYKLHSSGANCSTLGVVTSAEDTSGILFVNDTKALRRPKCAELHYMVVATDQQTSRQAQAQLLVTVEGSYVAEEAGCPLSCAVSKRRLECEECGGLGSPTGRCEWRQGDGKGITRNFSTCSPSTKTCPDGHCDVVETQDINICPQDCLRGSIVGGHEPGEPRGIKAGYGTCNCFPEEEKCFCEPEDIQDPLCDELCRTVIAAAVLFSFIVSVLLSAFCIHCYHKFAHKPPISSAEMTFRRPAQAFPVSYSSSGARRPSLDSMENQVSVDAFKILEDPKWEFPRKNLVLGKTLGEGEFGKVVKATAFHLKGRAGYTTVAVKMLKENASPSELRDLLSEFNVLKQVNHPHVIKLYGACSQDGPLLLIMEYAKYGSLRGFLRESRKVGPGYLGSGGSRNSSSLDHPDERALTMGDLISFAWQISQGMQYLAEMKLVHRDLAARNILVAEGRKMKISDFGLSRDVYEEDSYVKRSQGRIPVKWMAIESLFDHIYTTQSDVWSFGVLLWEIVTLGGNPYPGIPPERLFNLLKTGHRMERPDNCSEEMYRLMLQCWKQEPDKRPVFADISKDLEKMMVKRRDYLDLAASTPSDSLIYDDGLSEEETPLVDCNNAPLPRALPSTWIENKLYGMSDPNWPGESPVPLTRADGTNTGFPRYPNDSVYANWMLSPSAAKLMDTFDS

Activity % (MKK6(h)): 113%
Activity % (MELK(h)): 40%
Activity % (MST3(h)): 9%
Activity % (CaMKIIδ(h)): 98%
Activity % (Haspin(h)): 96%
Activity % (CK1γ3(h)): 117%
Activity % (Ron(h)): 34%
Activity % (PKCγ(h)): 102%
Activity % (MuSK(h)): 48%
Activity % (ULK2(h)): 46%
Activity % (ZIPK(h)): 104%
Activity % (PRAK(h)): 100%
Activity % (IGF-1R(h), activated): 18%
Activity % (ALK4(h)): 28%
Activity % (PKA(h)): 111%
Activity % (PAK4(h)): 70%
Activity % (TAO3(h)): 16%
Activity % (Pyk2(h)): 59%
Activity % (PKBα(h)): 109%
Activity % (Ret(V804M)(h)): 0%
Activity % (BTK(h)): 37%
Activity % (NEK2(h)): 101%
Activity % (CaMKIIβ(h)): 99%
Activity % (PKBβ(h)): 97%
Activity % (Hck(h)): 18%
Activity % (KDR(h)): 14%
Activity % (LOK(h)): 20%
Activity % (PAK5(h)): 29%
Activity % (EGFR(L861Q)(h)): 52%
Activity % (BRK(h)): 33%
Activity % (FGFR1(h)): −1%
Activity % (CK1γ2(h)): 134%
Activity % (SGK(h)): 107%
Activity % (EGFR(T790M,L858R)(h)): 17%
Activity % (PKCα(h)): 95%
Activity % (FGFR4(h)): 19%
Activity % (PhKγ2(h)): 77%
Activity % (Met(M1268T)(h)): 22%
Activity % (PDGFRα(D842V)(h)): 17%
Activity % (ROCK-I(h)): 93%
SMILES: Cc1cc2c(F)c(Oc3nc(Nc4cc(C5CC5)[nH]n4)cc(N4CCN(C)CC4)n3)cc(F)c2[nH]1 [NTW-3475]
